Results taken from patent US20240383913A1, “THIOPHENE RING COMPOUND, PREPARATION METHOD THEREFOR AND APPLICATION THEREOF” (CENTER FOR EXCELLENCE IN MOLECULAR CELL SCIENCE, CHINESE …, priority 2021, published 2024).

How the values were obtained:
5-HT1A receptor [1] = target: T1, 5-HT1A receptor (Homo sapiens (Human), UniProt P08908); test: 5-HT1A receptor Gαi1 BRET (G protein trimer dissociation); assay type: cell-based; conditions: 5-HT1A receptor, G protein pathway; for EC50: read-out: Gαi1 BRET EC50;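 as to all read-outs here: cells transiently co-expressing 5-HT1A receptor, luciferase-tagged Gαi1, Gβ3 and GFP-tagged Gγ9, seeded in 96-well plates for BRET measurement of G protein signaling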
T1 sequence (P08908 whole entry, the tested form may be a part): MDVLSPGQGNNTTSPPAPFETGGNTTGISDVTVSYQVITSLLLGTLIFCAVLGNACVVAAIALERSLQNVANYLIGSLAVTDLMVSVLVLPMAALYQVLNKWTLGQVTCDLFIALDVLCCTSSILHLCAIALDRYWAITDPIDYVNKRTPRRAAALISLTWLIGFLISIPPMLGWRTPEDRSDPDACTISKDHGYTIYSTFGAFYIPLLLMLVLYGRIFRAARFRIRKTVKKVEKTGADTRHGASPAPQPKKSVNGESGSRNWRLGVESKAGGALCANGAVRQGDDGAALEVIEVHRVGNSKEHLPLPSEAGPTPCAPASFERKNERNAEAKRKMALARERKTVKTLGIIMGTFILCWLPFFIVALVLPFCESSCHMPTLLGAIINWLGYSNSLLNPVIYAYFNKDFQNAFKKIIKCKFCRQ
Method: (§1) The affinity of the compounds of the present disclosure for the 5-HTIA receptors was determined by the method of radioligand competition experiment. In the first step, a cell membrane component containing specific 5-HTIA receptor was prepared. A 10 cm culture dish was used for transfection with 10 ng of the 5-HTIA receptor and 40 μL of PEI. After 48 hours, the 10 cm culture dish was taken out from the cell incubator and the cultured cells had expressed the 5-HTIA receptor. A vacuum pump was used to suck off the culture medium, 3 mL of lysis buffer was added to each culture dish, and the cells were placed in a 4° C. cold room for 10 minutes. After the cells were detached, the cells were transferred to a 15 mL centrifuge tube and centrifuged at 1500 rpm for 5 minutes at 4° C., and the supernatant was discarded. The cell pellet was transferred to a tissue homogenizer, and 3 mL of lysis buffer was added and fully ground until the cells were broken. Then, cell suspension was equally aliquoted into several EP tubes, centrifuged at 12000 rpm for 5 minutes at 4° C., and the supernatant was discarded. The precipitate was the cell membrane component containing the 5-HT1A receptor. […] First, a standard binding buffer was added to the cell membrane component containing the 5-HT1A receptor, and the cell membrane was disrupted and resuspended with an electric tissue homogenizer. 30 μL of membrane protein suspension was added to each well of a 96-well plate. Then, 30 μL of different drugs were added to the 96-well plate sequentially from bottom to top to ensure that the final drug concentrations were 10^−5 M, 10^−6 M, 10^−7 M, 10^−8 M, 10^−9 M, and 0 M, with two replicates per treatment. Next, 30 μL of [3H]-LSD was added to each well of the 96-well plate. The plate was incubated for 2 hours at room temperature in the dark. Detection was conducted. The machine readout value reflected the amount of [3H]-LSD bound on the membrane, and after further data processing, the affinity Ki values of different compounds for the 5-HTIA receptor were obtained. To examine the downstream G protein signaling pathway mediated by 5-HTIA receptors, on the first day, a 6 cm culture dish was used for transfection with 1 μg of 5-HTIA receptors, 1 μg of Gαi1 containing C-terminal seaweed luciferase (Gαi1-Rluc), 1 μg of Gβ3, 1 μg of Gγ9 containing C-terminal green fluorescent protein (Gγ9-GFP), and 16 μL of PEI. The next day, the confluent cells of a 6 cm culture dish were digested and reseeded into a 96-well plate with 100 μL of culture medium was added to each well. On the third day, the drugs were added for test. The 96-well plate was taken out from the cell incubator to decant the culture medium, 40 μL of the substrate coelenterazine 400a (final concentration of 5 μM) was added to each well, and then 20 μL of different drugs were added sequentially from left to right to ensure that the final concentration of the drug decreased gradually from bottom to top, with two replicates per treatment. Finally, the prepared samples were loaded on machine for test. The machine readout value reflected the dissociation of G protein trimer, and thereby indicated the degree of activation of the G protein signaling pathway downstream of the 5-HTIA receptors.

dopamine D2 receptors [2] = target: T2, dopamine D2 receptors (Homo sapiens (Human), UniProt P14416); test: Dopamine D2 receptor β-arrestin2 BRET (recruitment); assay type: cell-based; conditions: for Emax: read-out: β-arrestin2 BRET (Emax %);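 as to all read-outs here: cells co-expressing Rluc-fused D2 receptor, GRK2 and GFP2-fused β-arrestin2, BRET read with coelenterazine 400a after adding drug over a concentration series, in duplicate wells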
T2 sequence (P14416 whole entry, the tested form may be a part): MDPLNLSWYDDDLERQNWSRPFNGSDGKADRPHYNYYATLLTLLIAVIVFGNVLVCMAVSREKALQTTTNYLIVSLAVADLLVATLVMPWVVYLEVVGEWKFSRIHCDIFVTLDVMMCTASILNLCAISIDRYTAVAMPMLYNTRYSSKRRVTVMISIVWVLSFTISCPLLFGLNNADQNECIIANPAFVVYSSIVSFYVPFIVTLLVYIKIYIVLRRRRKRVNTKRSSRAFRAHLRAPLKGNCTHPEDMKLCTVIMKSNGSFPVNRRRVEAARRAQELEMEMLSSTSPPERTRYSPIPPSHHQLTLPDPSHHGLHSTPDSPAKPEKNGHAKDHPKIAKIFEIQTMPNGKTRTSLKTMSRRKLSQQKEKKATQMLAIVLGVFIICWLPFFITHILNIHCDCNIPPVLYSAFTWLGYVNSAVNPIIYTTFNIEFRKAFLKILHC
Method: (§2) To examine the downstream G protein signaling pathway mediated by dopamine D2 receptors, on the first day, a 6 cm culture dish was used for transfection with 1 μg of dopamine D2 receptors, 1 μg of Gαi1 containing a C-terminal seaweed luciferase (Gαi1-Rluc), 1 μg of Gβ3, 1 μg of Gγ9 containing C-terminal green fluorescent protein (Gγ9-GFP), and 16 μL of PEI. At the same time, in order to examine the downstream β-arrestin2 signaling pathway mediated by dopamine D2 receptors, on the first day, a 6 cm culture dish was used for transfection with 500 μg of dopamine D2 receptors containing C-terminal seaweed luciferase (D2-Rluc), 500 μg of G protein-coupled receptor kinase 2 (GRK2), 2500 μg of β-arrestin2 containing N-terminal green fluorescent protein (GFP2-ARRB2) mixed with 14 μL of PEI. The next day, the confluent cells of a 6 cm culture dish were digested and reseeded into a 96-well plate with 100 μL of culture medium added to each well. On the third day, the drugs were added for test. The 96-well plate was taken out from the cell incubator to decant the culture medium, 40 μL of the substrate coelenterazine 400a (final concentration of 5 μM) was added to each well, and then 20 μL of different drugs were added sequentially from left to right to ensure that the final concentration of the drug decreased gradually from bottom to top, with two replicates per treatment. Finally, the prepared samples were loaded on machine for test. The machine readout value reflected the recruitment of β-arrestin2 to the membrane or the dissociation of G protein trimer. The former indicated the degree of activation of the β-arrestin2 signaling pathway downstream of the dopamine D2 receptors, and the latter indicated the degree of activation of the G protein signaling pathway downstream of the dopamine D2 receptors.

dopamine D2 receptors [3] = target: T2, dopamine D2 receptors; test: Affinity for dopamine D2 receptors, radioligand competition with [3H]-Methylspiperone; assay type: binding; conditions: 293T membrane transiently expressing D2
Method: The affinity of the compounds of the present disclosure for the dopamine D2 receptors was determined by the method of radioligand competition experiment. In the first step, a cell membrane component containing specific dopamine D2 receptors was prepared. A 10 cm culture dish was used for transfection with 10 ng of the dopamine D2 receptors and 40 μL of polyethylenimine (PEI hereafter). After 48 hours, the 10 cm culture dish was taken out from the cell culture incubator and the cultured cells had expressed the dopamine D2 receptors. A vacuum pump was used to suck off the culture medium, 3 mL of lysis buffer was added to each culture dish, and the cells were placed in a 4° C. cold room for 10 minutes. After the cells were detached, the cells were transferred to a 15 mL centrifuge tube and centrifuged at 1500 rpm for 5 minutes at 4° C., and the supernatant was discarded. The cell pellet was transferred to a tissue homogenizer, and 3 mL of lysis buffer was added and fully ground until the cells were broken. Then, cell suspension was equally aliquoted into several EP tubes, centrifuged at 12000 rpm for 5 minutes at 4° C., and the supernatant was discarded. The precipitate was the cell membrane component containing the dopamine D2 receptors. […] First, a standard binding buffer was added to the cell membrane component containing the dopamine D2 receptors, and the cell membrane was disrupted and resuspended with an electric tissue homogenizer. 30 μL of membrane protein suspension was added to each well of a 96-well plate. Then, 30 μL of different drugs were added to the 96-well plate sequentially from bottom to top to ensure that the final drug concentrations were 10^−5 M, 10^−6 M, 10^−7 M, 10^−8 M, 10^−9 M, and 0 M, with two replicates per treatment. Next, 30 μL of [3H]-Methylspiperone was added to each well of the 96-well plate. The plate was incubated for 2 hours at room temperature in the dark. Detection was conducted. The machine readout value reflected the amount of [3H]-Methylspiperone bound on the membrane, and after further data processing, the affinity Ki values of different compounds for the dopamine D2 receptors were obtained.

dopamine D2 receptors [4] = target: T2, dopamine D2 receptors; test: Dopamine D2 receptor Gαi1 BRET (G protein trimer dissociation); assay type: cell-based; conditions: for Emax: read-out: Gαi1 BRET (Emax %);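 as to all read-outs here: transfected cells co-expressing D2 receptor, Gαi1-Rluc, Gβ3 and Gγ9-GFP, BRET with coelenterazine 400a at 5 µM read as G protein trimer dissociation, graded drug concentrations in duplicate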
Method: as §2

5-HT1A receptor [5] = target: T1, 5-HT1A receptor; test: Affinity for 5-HT1A receptors, radioligand competition with [3H]-LSD; assay type: binding; conditions: 293T membrane transiently expressing 5-HT1A; [3H]-LSD; read-out: 5-HT1A affinity Ki;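 also: membranes from cells transiently transfected with 5-HT1A receptor, bound [3H]-LSD displaced by compound at 10^-9 to 10^-5 M, 2 h incubation at room temperature in the dark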
Method: as §1

5-HT2A receptor [6] = target: T3, 5-HT2A receptor (Homo sapiens (Human), UniProt P28223); test: 5-HT2A receptor β-arrestin2 BRET (recruitment); assay type: cell-based; conditions: 5-HT2A receptor, β-arrestin2 pathway; for EC50: read-out: β-arrestin2 BRET EC50;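 as to all read-outs here: cells co-expressing Rluc-tagged 5-HT2A receptor, GRK2 and GFP2-tagged β-arrestin2, read by BRET with coelenterazine 400a (5 µM) across graded drug concentrations in duplicate, signal reflecting β-arrestin2 membrane recruitment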
T3 sequence (P28223 whole entry): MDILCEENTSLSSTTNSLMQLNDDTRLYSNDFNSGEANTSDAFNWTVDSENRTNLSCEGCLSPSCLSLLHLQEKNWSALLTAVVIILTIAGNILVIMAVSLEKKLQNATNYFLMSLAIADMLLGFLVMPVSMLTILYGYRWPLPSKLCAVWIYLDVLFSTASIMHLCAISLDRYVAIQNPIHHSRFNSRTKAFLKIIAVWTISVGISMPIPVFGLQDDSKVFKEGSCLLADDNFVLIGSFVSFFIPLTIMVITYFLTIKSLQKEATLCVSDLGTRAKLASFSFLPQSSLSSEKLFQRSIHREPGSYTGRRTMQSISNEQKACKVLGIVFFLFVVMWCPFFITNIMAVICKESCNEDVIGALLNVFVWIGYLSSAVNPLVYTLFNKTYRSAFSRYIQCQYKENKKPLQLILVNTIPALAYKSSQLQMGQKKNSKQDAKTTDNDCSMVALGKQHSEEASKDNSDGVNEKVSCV
Method: (§3) To examine the downstream G protein signaling pathway mediated by 5-HT2A receptors, on the first day, a 6 cm culture dish was used for transfection with 1 μg of 5-HT2A receptors, 1 μg of Gαq containing C-terminal seaweed luciferase (Gαq-Rluc), 1 μg of Gβ3, 1 μg of Gγ9 containing C-terminal green fluorescent protein (Gγ9-GFP), and 16 μL of PEI. At the same time, in order to examine the downstream β-arrestin2 signaling pathway mediated by 5-HT2A receptors, on the first day, a 6 cm culture dish was used for transfection with 500 μg of 5-HT2A receptors containing C-terminal seaweed luciferase (5-HT2A-Rluc), 500 μg of G protein-coupled receptor kinase 2 (GRK2), 2500 μg of β-arrestin2 containing N-terminal green fluorescent protein (GFP2-ARRB2), and 14 μL of PEI. The next day, the confluent cells of a 6 cm culture dish were digested and reseeded into a 96-well plate with 100 μL of culture medium was added to each well. On the third day, the drugs were added for test. The 96-well plate was taken out from the cell incubator to decant the culture medium, 40 μL of the substrate coelenterazine 400a (final concentration of 5 μM) was added to each well, and then 20 μL of different drugs were added sequentially from left to right to ensure that the final concentration of the drug decreased gradually from bottom to top, with two replicates per treatment. Finally, the prepared samples were loaded on machine for test. The machine readout value reflected the recruitment of β-arrestin2 to the membrane or the dissociation of G protein trimer. The former indicated the degree of activation of the β-arrestin2 signaling pathway downstream of the 5-HT2A receptors, and the latter indicated the degree of activation of the G protein signaling pathway downstream of the 5-HT2A receptors.

5-HT2A receptor [7] = target: T3, 5-HT2A receptor; test: 5-HT2A receptor Gαq BRET (G protein trimer dissociation); assay type: cell-based; conditions: for EC50: read-out: Gαq BRET EC50; for Emax: read-out: Gαq BRET (Emax %);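 as to all read-outs here: cells transfected with 5-HT2A receptor, Gαq-Rluc, Gβ3 and Gγ9-GFP, BRET read with coelenterazine 400a (5 µM) across a compound dilution series in duplicate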
Method: as §3

5-HT2A receptor [8] = target: T3, 5-HT2A receptor; test: Affinity for 5-HT2A receptors, radioligand competition with [3H]-ketanserin; assay type: binding; conditions: 293T membrane transiently expressing 5-HT2A
Method: The affinity of the compounds of the present disclosure for the 5-HT2A receptors was determined by the method of radioligand competition experiment. In the first step, a cell membrane component containing specific 5-HT2A receptor was prepared. A 10 cm dish was used for transfection with 10 ng of the 5-HT2A receptor and 40 μL of PEI. After 48 hours, the 10 cm dish was taken out from the cell incubator and the cultured cells had expressed the 5-HT2A receptor. A vacuum pump was used to suck off the culture medium, 3 mL of lysis buffer was added to each culture dish, and the cells were placed in a 4° C. cold room for 10 minutes. After the cells were detached, the cells were transferred to a 15 mL centrifuge tube and centrifuged at 1500 rpm for 5 minutes at 4° C., and the supernatant was discarded. The cell pellet was transferred to a tissue homogenizer, and 3 mL of lysis buffer was added and fully ground until the cells were broken. Then, cell suspension was equally aliquoted into several EP tubes, centrifuged at 12000 rpm for 5 minutes at 4° C., and the supernatant was discarded. The precipitate was the cell membrane component containing the 5-HT2A receptor. […] First, a standard binding buffer was added to the cell membrane component containing the 5-HT2A receptor, and the cell membrane was disrupted and resuspended with an electric tissue homogenizer. 30 μL of membrane protein suspension was added to each well of a 96-well plate. Then, 30 μL of different drugs were added to the 96-well plate sequentially from bottom to top to ensure that the final drug concentrations were 10^−5 M, 10^−6 M, 10^−7 M, 10^−8 M, 10^−9 M, and 0 M, with two replicates per treatment. Next, 30 μL of [3H]-ketanserin was added to each well of the 96-well plate. The plate was incubated for 2 hours at room temperature in the dark. Detection was conducted. The machine readout value reflected the amount of [3H]-ketanserin bound on the membrane, and after further data processing, the affinity Ki values of different compounds for the 5-HT2A receptor were obtained.

[9] = D2 receptor, β-arrestin2 pathway
[10] = D2 receptor, β-arrestin2 pathway, read-out: β-arrestin2 BRET EC50
[11] = D2 receptor, G protein pathway, read-out: Gαi1 BRET EC50
[12] = 5-HT2A receptor, G protein pathway

SMILES | Emax (5-HT1A receptor [1]) [%] | EC50 (5-HT1A receptor [1]) [µM] | EC50 (dopamine D2 receptors [2]; [10]) [µM] | Ki (dopamine D2 receptors [3]) [µM] | EC50 (dopamine D2 receptors [4]; [11]) [µM] | Ki (5-HT1A receptor [5]) [µM] | EC50 (5-HT2A receptor [7]; [12]) [µM] | Ki (5-HT2A receptor [8]) [µM] | Emax (dopamine D2 receptors [2]) [%] | Emax (dopamine D2 receptors [4]) [%] | Emax (5-HT2A receptor [7]) [%] | other results
c1cc2c3c(csc3c1)CC1CN(CC3CC3)CCN21 (stereo not drawn) [Compound I-4, 8-(Cyclopropylmethyl)-6,6a,7,8,9,10-Hexahydropyrazino[1,2-a]Thieno [4,3,2-De]Quinoline] | 69 | 12.8 | 0.0112 | 0.32 | 0.0363 | 0.59 |  |  |  |  |  | Emax (dopamine D2 receptors [2]; [9]): 16.4%; Emax (dopamine D2 receptors [4]; D2 receptor, G protein pathway): 25%
O=C(NCCN1CCN2c3cccc4scc(c34)CC2C1)C1CCOCC1 (stereo not drawn) [Compound I-14, N-(2-(6a,7,9,10-Tetrahydropyrazino[1,2-a]Thieno [4,3,2-De]Quinolin-8 (6H)-Yl)Ethyl)Tetrahydro-2H-Pyran-4-Carboxamide] | 86 | 2 |  | > 10 |  | 1.3 | 0.475 | 1.19 |  |  |  | β-arrestin2 BRET (Emax %) (5-HT2A receptor [6]): (21.00%); EC50 (5-HT2A receptor [6]): 0.123 µM; Gαq BRET (Emax %) (5-HT2A receptor [7]; [12]): (29.10%)
c1csc(CCN2CCN3c4cccc5scc(c45)CC3C2)c1 (stereo not drawn) [Compound I-6, 8-(2-(Thiophen-2-Yl)Ethyl)-6,6a,7,8,9,10-Hexahydropyrazino[1,2-a]Thieno [4,3,2-De]Quinoline] | 90 | 3.23 |  | 5.73 |  | 2.73 |  | 7.25 | 20.2 | 58.4 |  | EC50 (dopamine D2 receptors [2]): 0.299 µM; Emax (5-HT2A receptor [6]): 45.4%; EC50 (5-HT2A receptor [6]): 8.34 µM; EC50 (dopamine D2 receptors [4]): 0.342 µM
O=C1CCc2ccc(OCCCN3CCN4c5cccc6scc(c56)CC4C3)cc2N1 (stereo not drawn) [Compound I-18, 7-(3-(6a,7,9,10-Tetrahydropyrazino[1,2-a]Thieno [4,3,2-De]Quinolin-8 (6H)-Yl) Propoxy)-3,4-Dihydroquinolin-2 (1H)-One] | 82 | 0.696 | 0.279 | 0.27 | 0.0339 | 0.01 |  | 0.16 | 71.9 | 91.3 |  | 
c1ccc(-c2cccc(CN3CCN4c5cccc6scc(c56)CC4C3)c2)cc1 (stereo not drawn) [Compound I-7, 8-([1, l′-Biphenyl]-3-Ylmethyl)-6,6a, 7,8,9, 10-Hexahydropyrazino[1,2-a]Thieno [4,3,2-De]Quinoline] |  |  |  |  |  | 39.3 | 0.14 |  |  |  | 36.9 | 
O=C(CN1CCN2c3cccc4scc(c34)CC2C1)c1ccc(F)cc1 (stereo not drawn) [Compound I-10, 1-(4-Fluorophenyl)-2-(6a,7,9,10-Tetrahydropyrazino[1,2-a]Thieno [4,3,2-De]Quinolin-8 (6H)-Yl) Ethan-1-One] | 71 | 7.2 | 0.0143 | 2.06 | 0.796 | 0.97 |  |  | 21.5 | 17.1 | 110 | Emax (5-HT2A receptor [6]): 71.6%
c1ccc(OCCN2CCN3c4cccc5scc(c45)CC3C2)cc1 (stereo not drawn) [Compound I-15, 8-(2-Phenoxyethyl)-6,6a,7,8,9,10-Hexahydropyrazino[1,2-a]Thieno [4,3,2-De]Quinoline] | 57 | 5.26 | 0.164 | 5.5 | 0.334 | 0.84 |  | 1.71 | 10.5 | 18.6 |  | Emax (5-HT2A receptor [6]): 10%; EC50 (5-HT2A receptor [6]): 1.77 µM
CN(C)C(=O)N[C@H]1CC[C@H](CCN2CCN3c4cccc5scc(c45)C[C@@H]3C2)CC1 [(+)-I-27] |  | 0.206 | 0.016 | > 10 | 0.00916 | 0.17 |  | 0.45 |  |  |  | Gαi1 BRET (Emax %) (5-HT1A receptor [1]): (60%); β-arrestin2 BRET (Emax %) (dopamine D2 receptors [2]; [9]): (45.78%); Gαi1 BRET (Emax %) (dopamine D2 receptors [4]; D2 receptor, G protein pathway): (69.54%)
O=C(NCCN1CCN2c3cccc4scc(c34)CC2C1)c1ccc(F)cc1 (stereo not drawn) [Compound I-12, 4-Fluoro-N-(2-(6a,7,9,10-Tetrahydropyrazino[1,2-a]Thieno [4,3,2-De]Quinolin-8 (6H)-Yl)Ethyl)Benzamide] | 93 | 1.32 |  | 1.21 |  | 0.59 |  | 1.52 |  |  |  | Emax (5-HT2A receptor [6]): 5.7%; EC50 (5-HT2A receptor [6]): 5.24 µM
c1cc2c3c(csc3c1)CC1CN(CCCOc3ccc4c(c3)OCO4)CCN21 (stereo not drawn) [Compound I-16, 8-(3-(Benzo[d][1,3]Dioxol-5-Yloxy) Propyl)-6,6a, 7,8,9,10-Hexahydropyrazino[1,2-a]Thieno [4,3,2-De]Quinoline] | 88 | 2.72 | 0.289 | 1.55 | 0.0448 | 0.56 | 0.34 | > 10 | 37.7 | 57.9 | 19.5 | 
O=C(N[C@H]1CC[C@H](CCN2CCN3c4cccc5scc(c45)CC3C2)CC1)N1CCCC1 (stereo partly drawn) [Compound I-28, N-(4-(2-(6a,7,9,10-Tetrahydropyrazino[1,2-a]Thieno [4,3,2-De]Quinolin-8 (6H)-Yl)Ethyl) Trans-Cyclohexyl) Pyrrolidine-1-Carboxamide] | 59 | 0.142 | 0.0387 | 0.08 | 0.018 | 0.05 | 0.184 | 0.52 | 34.2 | 30.7 | 12.5 | 
O=C1NCCN1c1cccc(CN2CCN3c4cccc5scc(c45)CC3C2)c1 (stereo not drawn) [Compound I-9, 1-(3-((6a,7,9,10-Tetrahydropyrazino[1,2-a]Thieno [4,3,2-De]Quinolin-8 (6H)-Yl)Methyl)Phenyl) Imidazolidin-2-One] | 55 | 14.4 | 0.0286 | 0.8 | 0.281 | 5.46 | 0.747 | 0.69 |  |  | 25 | Emax (dopamine D2 receptors [2]; [9]): 24.2%; Emax (dopamine D2 receptors [4]; D2 receptor, G protein pathway): 23.1%
O=C1[C@H]2CCCC[C@H]2C(=O)N1CCCCN1CCN2c3cccc4scc(c34)CC2C1 (stereo partly drawn) [Compound I-26] | 88 | 0.489 | 0.0448 |  | 0.573 | 0.4 | 0.339 |  | 19.8 | 47.9 | 26 | 
O=C(CCCN1CCN2c3cccc4scc(c34)CC2C1)c1ccc(F)cc1 (stereo not drawn) [Compound I-11, 1-(4-Fluorophenyl)-4-(6a,7,9,10-Tetrahydropyrazino[1,2-a]Thieno [4,3,2-De]Quinolin-8 (6H)-Yl) Butan-1-One] | 28 | 3.87 |  | 0.47 |  | 4.54 |  | 0.32 |  |  |  | 
O=C1CCc2ccc(OCCCCN3CCN4c5cccc6scc(c56)CC4C3)cc2N1 (stereo not drawn) [Compound I-20, 7-(4-(6a,7,9,10-Tetrahydropyrazino[1,2-a]Thieno [4,3,2-De]Quinolin-8 (6H)-Yl) Butoxy)-3,4-Dihydroquinolin-2 (1H)-One] | 72 | 1.54 | 0.464 | 0.03 | 0.107 | 0.16 | 5.59 | 0.64 | 35.6 | 64 | 17.8 | 
c1cc2c3c(csc3c1)CC1CN(CCCCOc3ccc4scnc4c3)CCN21 (stereo not drawn) [Compound I-21, 8-(4-(Benzo[d]Thiazol-5-Yloxy)Butyl)-6,6a,7,8,9,10-Hexahydropyrazino[1,2-a]Thieno [4,3,2-De]Quinoline] | 68 | 8.18 | 0.233 | 7.18 | 0.146 | 3.22 | 4.38 | > 10 | 32.6 | 54 | 16.6 | 
O=c1ccc2ccc(OCCCCN3CCN4c5cccc6scc(c56)CC4C3)cc2[nH]1 (stereo not drawn) [Compound I-19, 7-(4-(6a,7,9,10-Tetrahydropyrazino[1,2-a]Thieno [4,3,2-De]Quinolin-8 (6H)-Yl) Butoxy) Quinolin-2 (1H)-One] | 81 | 3.67 | 0.0439 | 0.01 | 0.00826 | 0.03 | 1.44 | 1.41 | 64.5 | 74.6 | 15.6 | 
O=C1c2ccccc2CCCN1CCCCN1CCN2c3cccc4scc(c34)CC2C1 (stereo not drawn) [Compound I-25, 2-(4-(6a,7,9,10-Tetrahydropyrazino[1,2-a]Thieno [4,3,2-De]Quinolin-8 (6H)-Yl)Butyl)-2,3,4,5-Tetrahydro-1H-Benzo[c]Azepin-1-One] | 82 | 1.32 | 0.0615 | 0.1 | 0.0278 | 0.77 | 0.969 | 0.3 | 49.2 | 67.9 | 17.8 | 
